Laboratory results from PMC7556816, “Structural and mechanistic analysis of ATPase inhibitors targeting mycobacterial DNA gyrase” (Journal of Antimicrobial Chemotherapy, 2020).
Values after ≈ are worked out from the molar mass of the structure shown. Where two headings read alike, the source gives them in different places.

How the values were obtained:
[1] = test system: M. smegmatis 4x03863 Mutant 1; experiment: microbe, parasite or virus in culture; format: cell-based; details: Mycolicibacterium smegmatis, read-out: MIC100
[2] = test system: M. smegmatis 4x03863 Mutant 4; experiment: microbe, parasite or virus in culture; format: cell-based; details: Mycolicibacterium smegmatis, read-out: MIC100
[3] = test system: M. smegmatis 4x03863 Mutant 3; experiment: microbe, parasite or virus in culture; format: cell-based; details: Mycolicibacterium smegmatis, read-out: MIC100
M. smegmatis ATCC 19420 = experiment: Antibacterial testing, broth microdilution (CLSI); format: cell-based, Mycobacterium smegmatis; details: Mycolicibacterium smegmatis
Procedure: (§1) Antibacterial testing was performed for Acinetobacter baumannii NCTC 13420, E. coli ATCC 25922, M. smegmatis ATCC 19420, Pseudomonas aeruginosa ATCC 27853 and Staphylococcus aureus ATCC 29213, using the broth microdilution method under CLSI guidelines[19] (Table 1). The agar dilution method was additionally performed for M. smegmatis under EUCAST guidelines.[20]

E. coli ATCC 25922 = experiment: Antibacterial testing, broth microdilution (CLSI); format: cell-based; details: Escherichia coli
Procedure: as §1

E. coli 2x03863 Mutant = experiment: microbe, parasite or virus in culture; format: cell-based; details: Escherichia coli, read-out: MIC100
M. tuberculosis gyrase [4] = molecular target: T1, M. tuberculosis gyrase (Mycobacterium tuberculosis, UniProt P9WG45); experiment: ATP-independent relaxation of supercoiled DNA; format: biochemical; details: absence of ATP
T1 construct: Both the GyrB and GyrBA constructs were altered by deleting the N-terminal 40 amino acids; made in house
From the text: In the presence of FQs, gyrase can cleave DNA due to the cleavage complex being stabilized.[35]

[5] = test system: M. smegmatis 4x03863 Mutant 2 (GyrB Gly83Ser)
M. tuberculosis gyrase [6] = molecular target: T1, M. tuberculosis gyrase; experiment: biochemical; details: 74 nM of each gyrase subunit, 1% DMSO; read-out: IC50 (apparent), gyrase supercoiling
[7] = molecular target: T2, M. tuberculosis GyrBA fusion protein (Mycobacterium tuberculosis, UniProt P9WG45+P9WG47); experiment: biochemical
T2 construct: Both the GyrB and GyrBA constructs were altered by deleting the N-terminal 40 amino acids; made in house; host or cells: E. coli Rosetta 2 (pLysS)

P. aeruginosa ATCC 27853 = experiment: Antibacterial testing, broth microdilution (CLSI); format: cell-based; details: Pseudomonas aeruginosa, ATCC27853
Procedure: as §1

S. aureus ATCC 29213 = experiment: Antibacterial testing, broth microdilution (CLSI); format: cell-based; details: Staphylococcus aureus, ATCC29213
Procedure: as §1

A. baumannii NCTC 13420 = experiment: Antibacterial testing, broth microdilution (CLSI); format: cell-based; details: Acinetobacter baumannii, NCTC13420
Procedure: as §1

M. tuberculosis gyrase [8] = molecular target: T1, M. tuberculosis gyrase; experiment: DNA cleavage assay (cleavage complex stabilisation); format: biochemical; details: 20 nM gyrase, 1% DMSO
Procedure: Figure S1. […] DNA cleavage assays were carried out as previously described;^11 these are essentially the same as supercoiling assays, except that the reactions are terminated by the addition of SDS and proteinase K, and incubated for a further 30 mins at 37°C. Samples contained 20 nM gyrase and 1% DMSO, except where indicated, and Moxifloxacin, Redx03863 or Redx04739, as indicated. Agarose gels (1%) were run in the presence of 0.5 µg/mL ethidium bromide. – indicates no gyrase; + and all other lanes contain gyrase. nc = nicked circular DNA; l = linear; cc = closed circular.

[9] = M. smegmatis ATCC19420 (WT), read-out: MIC100
[10] = E. coli ATCC25922 (WT), read-out: MIC100
[11] = GyrBA fusion protein at 200 nM, linear pBR322 DNA 20 μg/mL, read-out: apparent IC50, gyrase ATPase activity
[12] = gyrase 200 nM, IC50 lower than this not determinable, read-out: IC50, gyrase ATPase reaction
[13] = ATCC25922, E. coli ATCC 25922, broth microdilution, read-out: MIC
[14] = ATCC19420, M. smegmatis ATCC 19420, broth microdilution, read-out: MIC

Structure (SMILES)	MIC [1] [µg/mL]	MIC [2] [µg/mL]	MIC [3] [µg/mL]	MIC (M. smegmatis ATCC 19420; [9]) [µg/mL]	MIC (E. coli ATCC 25922; [10]) [µg/mL]	MIC (E. coli 2x03863 Mutant) [µg/mL]	inhibition of relaxation of supercoiled DNA (M. tuberculosis gyrase [4])	increase in resistance of mutant strain [5] [fold]	IC50 (M. tuberculosis gyrase [6]) [nM]	IC50 [7, 11] [nM]	IC50 [7, 12] [nM]	MIC (P. aeruginosa ATCC 27853) [µg/mL]	MIC (S. aureus ATCC 29213) [µg/mL]	MIC (A. baumannii NCTC 13420) [µg/mL]	MIC (E. coli ATCC 25922; [13]) [µg/mL]	stabilization of the cleavage complex (M. tuberculosis gyrase [8])	MIC (M. smegmatis ATCC 19420; [14]) [µg/mL]
NNC(=O)c1ccncc1 [Isoniazid]	32 (≈ 233 µM)	32 (≈ 233 µM)	16 (≈ 117 µM)	32 (≈ 233 µM)	–	–	–	–	–	–	–	–	–	–	–	–	–
COc1c(N2C[C@@H]3CCCN[C@@H]3C2)c(F)cc2c(=O)c(C(=O)O)cn(C3CC3)c12 [Moxifloxacin, reference compound]	< 0.125	< 0.125	< 0.125	0.125 (≈ 0.311 µM)	0.016 (≈ 0.0399 µM)	0.016 (≈ 0.0399 µM)	–	–	–	–	–	–	–	–	–	–	–
CNc1cc(F)cc2c1[nH]c1nc(Oc3cnc(C)nc3)nc(N3C[C@@H]4[C@@H](N)[C@@H]4C3)c12 [Redx03863]	0.25 (≈ 0.595 µM)	0.25 (≈ 0.595 µM)	0.125 (≈ 0.297 µM)	0.016 (≈ 0.0381 µM)	0.016 (≈ 0.0381 µM)	32 (≈ 76.1 µM)	did not inhibit	16	9	170	~200	4 (≈ 9.51 µM)	0.125 (≈ 0.297 µM)	0.031 (≈ 0.0737 µM)	0.016 (≈ 0.0381 µM)	did not stabilize the cleavage complex	0.016 (≈ 0.0381 µM)
CNc1cc(F)cc2c1[nH]c1nc(CNC(=O)c3cnco3)nc(N3CCC(N)C3)c12 (centres unmarked) [Redx04739]	4 (≈ 9.42 µM)	2 (≈ 4.71 µM)	4 (≈ 9.42 µM)	0.5 (≈ 1.18 µM)	8 (≈ 18.8 µM)	> 64	did not inhibit	8	30	210	~200	32 (≈ 75.4 µM)	8 (≈ 18.8 µM)	64 (≈ 151 µM)	8 (≈ 18.8 µM)	did not stabilize the cleavage complex	0.25 (≈ 0.589 µM)
CO[C@@H]1[C@@H](OC(N)=O)[C@@H](O)[C@H](Oc2ccc3c(O)c(NC(=O)c4ccc(O)c(CC=C(C)C)c4)c(=O)oc3c2C)OC1(C)C [novobiocin, reference compound]	4 (≈ 6.53 µM)	4 (≈ 6.53 µM)	8 (≈ 13.1 µM)	2 (≈ 3.26 µM)	64 (≈ 104 µM)	0.5 (≈ 0.816 µM)	–	–	–	–	–	–	–	–	–	–	–
